The values below come from PubChem BioAssay AID248 (DTP/NCI, 2004).

Values joined by “and” are separate entries in the source; they are usually repeats but may differ in a detail not shown here. Equal entries are not always repeated. Inconclusive results and toxic doses are left out.

This experiment concerns L1210 leukemia ip in BDF1 mice, survival T/C. The experiment in a line: NCI In Vivo Anticancer Drug Screen. Data for tumor model L1210 Leukemia (intraperitoneal) in B6D2F1 (BDF1) mice. The following applies: endpoint: mean survival time, higher = longer survival. The method in brief:
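Tumor was transplanted into mice, which were then dosed with test compound or vehicle alone. Survival was recorded for each group, and the treated figure was expressed relative to the control figure.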

Where [1] appears, read: dose: 75.0 mg/kg/injection, schedule: Q01DX001 (ip), vehicle: saline.
[2] abbreviates: dose: 400.0 mg/kg/injection, schedule: Q01DX001 (ip), vehicle: saline.
Where [3] appears, read: dose: 100.0 mg/kg/injection, schedule: Q04DX002 (ip), vehicle: saline.
Where [4] appears, read: dose: 200.0 mg/kg/injection, schedule: Q04DX002 (ip), vehicle: saline.
Where [5] appears, read: dose: 50.0 mg/kg/injection, schedule: Q01DX001 (ip), vehicle: Klucel (hydroxypropylcellulose) (HPC).
[6] abbreviates: dose: 100.0 mg/kg/injection, schedule: Q01DX001 (ip), vehicle: Klucel (hydroxypropylcellulose) (HPC).
Where [7] appears, read: dose: 200.0 mg/kg/injection, schedule: Q01DX001 (ip), vehicle: Klucel (hydroxypropylcellulose) (HPC).
Setting [8] is: dose: 100.0 mg/kg/injection, schedule: Q04DX003 (ip), vehicle: saline with Tween-80.
[9] abbreviates: dose: 200.0 mg/kg/injection, schedule: Q04DX003 (ip), vehicle: saline with Tween-80.
Setting [10] is: dose: 100.0 mg/kg/injection, schedule: Q01DX009 (ip), vehicle: Klucel (hydroxypropylcellulose) (HPC).
The mark [11] stands for this setting: dose: 200.0 mg/kg/injection, schedule: Q01DX009 (ip), vehicle: Klucel (hydroxypropylcellulose) (HPC).
[12] abbreviates: dose: 400.0 mg/kg/injection, schedule: Q01DX009 (ip), vehicle: Klucel (hydroxypropylcellulose) (HPC).
Setting [13] is: dose: 100.0 mg/kg/injection, schedule: Q01DX001 (ip), vehicle: saline.
Setting [14] is: dose: 200.0 mg/kg/injection, schedule: Q01DX001 (ip), vehicle: saline.

On to `OC(c1ccc(OCc2ccccc2)cc1)c1nccc2ccccc12` (configuration not stated), for which, where the note is “dose: 100.0 mg/kg/injection, schedule: Q01DX001 (ip), vehicle: acetone”, the T/C was 88 % of control.

In the case of `Nc1nc(SSc2nc(N)nc3c2ncn3C2CC(O)C(CO)O2)c2ncn(C3CC(O)C(CO)O3)c2n1` (configuration not stated), the T/C reads like this: (dose: 1.0 mg/kg/injection, schedule: Q01DX009 (ip), vehicle: saline) 212 % of control; (dose: 2.0 mg/kg/injection, schedule: Q01DX009 (ip), vehicle: saline) 223 % of control; under setting [1], 100 % of control; (dose: 119.0 mg/kg/injection, schedule: Q01DX009 (ip), vehicle: saline) 118 % of control; (dose: 178.0 mg/kg/injection, schedule: Q01DX009 (ip), vehicle: saline) 116 % of control; (dose: 267.0 mg/kg/injection, schedule: Q01DX001 (ip), vehicle: saline) 168 % of control. Moreover, the T/C is 88 % of control (dose: 267.0 mg/kg/injection, schedule: Q01DX009 (ip), vehicle: saline); 157 % of control and 178 % of control under setting [2]; 201 % of control (dose: 600.0 mg/kg/injection, schedule: Q01DX001 (ip), vehicle: saline); 96 % of control (dose: 31.3 micrograms/kg/injection, schedule: Q01DX009 (ip), vehicle: saline); 109 % of control (dose: 62.5 micrograms/kg/injection, schedule: Q01DX009 (ip), vehicle: saline); 112 % of control (dose: 125.0 micrograms/kg/injection, schedule: Q01DX009 (ip), vehicle: saline). Further, under “dose: 250.0 micrograms/kg/injection, schedule: Q01DX009 (ip), vehicle: saline”, the T/C is 109 % of control.

As for `CC(=O)COc1ccccc1NC(C)=O`, the T/C runs as follows: (dose: 100.0 mg/kg/injection, schedule: Q01DX009 (ip), vehicle: saline with Tween-80) 101 % of control; (dose: 200.0 mg/kg/injection, schedule: Q01DX009 (ip), vehicle: saline with Tween-80) 106 % of control; (dose: 400.0 mg/kg/injection, schedule: Q01DX009 (ip), vehicle: saline with Tween-80) 109 % of control.

`CN1C(c2ccccc2)=CN(Cc2ccccc2)C=C1c1ccccc1`: the T/C runs as follows: (dose: 50.0 mg/kg/injection, schedule: Q04DX002 (ip), vehicle: Klucel (hydroxypropylcellulose) (HPC)) 103 % of control; (dose: 100.0 mg/kg/injection, schedule: Q04DX002 (ip), vehicle: Klucel (hydroxypropylcellulose) (HPC)) 100 % of control; (dose: 200.0 mg/kg/injection, schedule: Q04DX002 (ip), vehicle: Klucel (hydroxypropylcellulose) (HPC)) 97 % of control.

`O=C1OC(=O)C2C3C=CC(C12)C1C3C1N1C(=O)CCC1=O` (configuration not stated): the T/C by setting is: (dose: 50.0 mg/kg/injection, schedule: Q04DX003 (ip), vehicle: acetone) 96 % of control; (dose: 100.0 mg/kg/injection, schedule: Q04DX003 (ip), vehicle: acetone) 88 % of control; (dose: 200.0 mg/kg/injection, schedule: Q04DX003 (ip), vehicle: acetone) 95 % of control.

In the case of `CC(=O)OCC1OC2OC(C)(C)OC2C1NC(=O)N(C)C(C)=O` (configuration not stated), the T/C was 87 % of control under setting [3]; 103 % of control under setting [4]; 90 % of control (dose: 400.0 mg/kg/injection, schedule: Q04DX002 (ip), vehicle: saline).

Turning to `Cc1ccc(-n2c(O)c(N=Nc3ccc(Br)cc3)c(=O)n(-c3ccc(I)cc3)c2=S)cc1`, the T/C under setting [5] was 100 % of control, the T/C under setting [6] is 109 % of control and the T/C under setting [7] was 106 % of control.

As for `CC(CCC(C)(C)O)C1CCC2C3C(O)CC4CCCCC4(C)C3CC(O)C12C` (configuration not stated), the T/C is, setting by setting: under setting [8], 89 % of control; under setting [9], 91 % of control; (dose: 400.0 mg/kg/injection, schedule: Q04DX003 (ip), vehicle: saline with Tween-80) 88 % of control.

As for `Cc1ccc(S(=O)(=O)OCCC2(C)CC2)cc1`, the T/C was 93 % of control (dose: 100.0 mg/kg/injection, schedule: Q01DX001 (ip), vehicle: saline with Tween-80); 90 % of control (dose: 200.0 mg/kg/injection, schedule: Q01DX001 (ip), vehicle: saline with Tween-80); 90 % of control (dose: 400.0 mg/kg/injection, schedule: Q01DX001 (ip), vehicle: saline with Tween-80).

`CCCCCCCCCCCCCCCCOc1cccc(OCc2ccccc2)c1`: the T/C (dose: 100.0 mg/kg/injection, schedule: Q04DX003 (ip), vehicle: DMSO) was 88 % of control; the T/C (dose: 200.0 mg/kg/injection, schedule: Q04DX003 (ip), vehicle: DMSO) was 98 % of control; the T/C (dose: 400.0 mg/kg/injection, schedule: Q04DX003 (ip), vehicle: DMSO) was 93 % of control.

In the case of `Cc1ccc(/C=N/NC(=O)c2ccccc2NC(=O)c2ccccc2)cc1`, the T/C is 105 % of control under setting [10], 97 % of control under setting [11] and 95 % of control under setting [12].

Consider `CCOC(=O)c1cnc(SC)nc1Nc1ccccc1[N+](=O)[O-]`, for which the T/C is, setting by setting: (dose: 25.0 mg/kg/injection, schedule: Q01DX001 (ip), vehicle: Klucel (hydroxypropylcellulose) (HPC)) 96 % of control; under setting [5], 96 % of control; under setting [6], 100 % of control; under setting [10], 94 % of control; under setting [7], 88 % of control; under setting [11], 94 % of control. Further, the T/C (dose: 400.0 mg/kg/injection, schedule: Q01DX001 (ip), vehicle: Klucel (hydroxypropylcellulose) (HPC)) is 88 % of control and the T/C under setting [12] is 89 % of control.

In the case of `N#CCCOc1ccccc1`, the T/C is, setting by setting: under setting [13], 108 % of control; under setting [14], 108 % of control; under setting [2], 104 % of control.

Regarding `CC1CCN(C(=O)CC#N)CC1`, the T/C (dose: 50.0 mg/kg/injection, schedule: Q01DX009 (ip), vehicle: saline) was 108 % of control; the T/C (dose: 100.0 mg/kg/injection, schedule: Q01DX009 (ip), vehicle: saline) was 112 % of control; the T/C under setting [3] is 102 % of control; the T/C under setting [4] was 102 % of control.

For the molecule `COc1ccc(NC(=O)OCCN(CCOC(=O)Nc2ccc(OC)cc2)c2cccc(C)c2)cc1`, the T/C is 100 % of control under setting [13], 90 % of control under setting [14] and 90 % of control under setting [2].

For the molecule `CC(/C=C/c1ccco1)=N\O`, under “dose: 50.0 mg/kg/injection, schedule: Q01DX009 (ip), vehicle: other”, the T/C was 105 % of control.

With `C/C=C(\CC)C1(CC)C(=O)NC(=O)NC1=O`, the T/C is 97 % of control (dose: 75.0 mg/kg/injection, schedule: Q01DX001 (ip), vehicle: other); 102 % of control under setting [1]; 97 % of control (dose: 150.0 mg/kg/injection, schedule: Q01DX001 (ip), vehicle: other); 103 % of control (dose: 150.0 mg/kg/injection, schedule: Q01DX001 (ip), vehicle: saline); 91 % of control (dose: 300.0 mg/kg/injection, schedule: Q01DX001 (ip), vehicle: other); 112 % of control (dose: 300.0 mg/kg/injection, schedule: Q01DX001 (ip), vehicle: saline).

For the molecule `CCC[CH2][Sn]1([CH2]CCC)[O]OC2([O]1)C1CC3CC(C1)CC2C3` (configuration not stated), the T/C was 90 % of control (dose: 3.0 mg/kg/injection, schedule: Q04DX002 (ip), vehicle: Klucel (hydroxypropylcellulose) (HPC)); 108 % of control (dose: 6.0 mg/kg/injection, schedule: Q04DX002 (ip), vehicle: Klucel (hydroxypropylcellulose) (HPC)); 108 % of control (dose: 12.0 mg/kg/injection, schedule: Q04DX002 (ip), vehicle: Klucel (hydroxypropylcellulose) (HPC)); 101 % of control (dose: 12.5 mg/kg/injection, schedule: Q04DX002 (ip), vehicle: Klucel (hydroxypropylcellulose) (HPC)).

Consider `Nc1ccc(NC(=O)C(=O)O)cc1`, for which the T/C reads like this: under setting [8], 97 % of control; under setting [9], 88 % of control.

In the case of `OC1(c2ccncc2)CCc2ccccc21` (configuration not stated), the T/C runs as follows: (dose: 50.0 mg/kg/injection, schedule: Q01DX009 (ip), vehicle: Klucel (hydroxypropylcellulose) (HPC)) 101 % of control; under setting [10], 98 % of control; (dose: 100.0 mg/kg/injection, schedule: Q04DX003 (ip), vehicle: Klucel (hydroxypropylcellulose) (HPC)) 97 % of control; under setting [11], 102 % of control; (dose: 200.0 mg/kg/injection, schedule: Q04DX003 (ip), vehicle: Klucel (hydroxypropylcellulose) (HPC)) 101 % of control.
